SMILES strings stand for the structures.

T1 sequence (P47747 whole entry): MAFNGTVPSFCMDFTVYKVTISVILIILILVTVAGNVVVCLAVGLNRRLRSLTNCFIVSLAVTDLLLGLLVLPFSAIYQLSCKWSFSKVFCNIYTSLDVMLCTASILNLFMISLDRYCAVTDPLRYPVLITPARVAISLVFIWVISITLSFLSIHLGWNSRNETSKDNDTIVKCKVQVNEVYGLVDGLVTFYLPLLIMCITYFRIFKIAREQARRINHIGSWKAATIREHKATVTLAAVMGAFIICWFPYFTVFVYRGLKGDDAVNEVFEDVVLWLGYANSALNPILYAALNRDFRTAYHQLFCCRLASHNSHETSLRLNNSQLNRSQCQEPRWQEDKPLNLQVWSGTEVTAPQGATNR

The first series concerns the target T1, histamine H2 receptor (Cavia porcellus, UniProt P47747).
T1 construct: guinea pig's enucleated atrium; from tissue; host or cells: guinea pig isolated ("enucleated") atrium
Nature of the series: inhibition of the palpitation number of guinea pig's enucleated atrium (histamine antagonism). In kind it is cell-based. To be noted: compounds (I) as the oxalates. An excerpt:
The pA2 value is defined as a negative logarithm of the concentratio
of the compound (I) required to shift the doseresponse of histamine to th
high concentration side by 2fold. [Ariens, E.J., Molecular Pharmacology,
(1964), Academic Press, New York and London].
As a reminder, the Kb is the equilibrium dissociation constant of an antagonist, usually derived from a functional assay. A lower Kb goes with a more potent antagonist. In the case of `COC(=O)c1ccc(C(=O)NCCSCc2ccc(CN(C)C)o2)cc1` [Test No. 4], the Kb is 468 nM.

In turn, `CN(C)Cc1ccc(CSCCNC(=O)c2ccc(S(N)(=O)=O)cc2)o1` [Test No. 7] gave an antagonist equilibrium constant (Kb) of 151 nM.

Compound `CN(C)Cc1ccc(CSCCNC=O)o1` [Test No. 6] gave a Kb of 1860 nM.

As for `CC(C)c1cc(CN2CCCC2)sc1CSCCNC(=O)c1cccnc1` [Test No. 11], the Kb is 501 nM.

The compound `O=C(NCCSCc1ccc(CN2CCCC2)s1)c1ccc([N+](=O)[O-])cc1` [Test No. 9] had a Kb of 912 nM.

Compound `CC=CC=CC(=O)NCCSCc1ccc(CN(C)C)o1` [Test No. 5] had a Kb of 1910 nM.

For the compound `Cc1cc(CSCCNC(=O)c2ccc([N+](=O)[O-])cc2)oc1CN1CCCC1` [Test No. 12], the Kb was 851 nM.

As for `Cc1cc(CSCCNC(=O)c2ccc(S(N)(=O)=O)cc2)sc1CN1CCCC1` [Test No. 10], the Kb is 2190 nM.

In turn, `COC(=O)c1ccc(C(=O)NCCSCc2ccc(CN3CCCC3)s2)cc1` showed a Kb of 550 nM.

The next series deals with gastric acid secretion. Kind of series: gastric acid secretion inhibiting activity in Donryu male rats (pH value in the stomach). In kind it is in vivo. To be noted: Rattus norvegicus, oxalate.
The term ED50 denotes the dose at which the effect has come halfway, by size or by number of responders. A high value points to a need for a large dose. Take `CN(C)Cc1ccc(CSCCNC(=O)c2ccc(S(N)(=O)=O)cc2)o1.O=C(O)C(=O)O` [N-[2-[[(5-dimethylaminomethyl-2-furyl)-methyl]thio]ethyl]-4-sulfamoylbenzamide oxalate]: the 50% effect level (ED50) was put at a dose of 2.54 mg/kg.

System in the next series: not listed separately
Kind of series: acute toxicity in mice. The settings on record: mouse, in vivo, iv, oxalate, read-out: acute toxicity LD50 i.v.
For orientation: LD50 means the dose expected to kill half of the subjects tested. On to `CN(C)Cc1ccc(CSCCNC(=O)c2ccc(S(N)(=O)=O)cc2)o1.O=C(O)C(=O)O` [N-[2-[[(5-dimethylaminomethyl-2-furyl)-methyl]thio]ethyl]-4-sulfamoylbenzamide oxalate], for which the LD50 was determined as 150 mg/kg.

The series is the same for the next values; noted with them: mouse, in vivo, po, oxalate, read-out: acute toxicity LD50 p.o.
Turning to `CN(C)Cc1ccc(CSCCNC(=O)c2ccc(S(N)(=O)=O)cc2)o1.O=C(O)C(=O)O` [N-[2-[[(5-dimethylaminomethyl-2-furyl)-methyl]thio]ethyl]-4-sulfamoylbenzamide oxalate], the LD50 is > 1000 mg/kg.

Source of the values: patent US4318858A, “Thioethylamide derivatives” (Shionogi & Co., Ltd., priority 1979, dated 1982).
